Reference: ChEMBL document CHEMBL1130692, “Novel B-ring modified combretastatin analogues: syntheses and antineoplastic activity” (Bioorg Med Chem Lett, 1998)

Experiments:
Colon 26 = assay: Cytotoxic activity was determined against Colon 26 adenocarcinoma cells; type: functional, cell-based; conditions: Mus musculus
Bos taurus = organism: Bos taurus; assay: Inhibitory activity was determined against tubulin polymerization of bovine brain tubulin; type: functional

SMILES	IC50 (Bos taurus)	IC50 (Colon 26)
COc1cnc(/C=C\c2cc(OC)c(OC)c(OC)c2)nc1	> 10000 nM	> 3000 nM
COc1ncc(/C=C\c2cc(OC)c(OC)c(OC)c2)cn1	3000 nM	275 nM
COc1cc(/C=C\c2cc[n+](C)cc2)cc(OC)c1OC		> 3000 nM
COc1cc(/C=C\c2ccn(C)c(=O)c2)cc(OC)c1OC	2000 nM	19.2 nM
COc1ccc(/C=C\c2cc(OC)c(OC)c(OC)c2)cc1N	1000 nM	
COc1ccc(/C=C\c2cc(OC)c(OC)c(OC)c2)cc1O [COMBRETASTATIN A4]	2000 nM	8.7 nM

Second part, led by results:

IC50 (Bos taurus)	SMILES	IC50 (Colon 26)
2000 nM	COc1ccc(/C=C\c2cc(OC)c(OC)c(OC)c2)cn1	29.2 nM
> 10000 nM	COc1cc(/C=C\c2ccc(=O)n(C)c2)cc(OC)c1OC	> 3000 nM
> 10000 nM	COc1ccc(/C=C\c2cc(OC)c(OC)c(OC)c2)nn1	> 3000 nM
> 10000 nM	COc1cc(/C=C\c2cc[n+]([O-])cc2)cc(OC)c1OC	> 3000 nM
9000 nM	COc1cnc(/C=C\c2cc(OC)c(OC)c(OC)c2)cn1	880 nM
3000 nM	COc1ccc(/C=C\c2cc(OC)c(OC)c(OC)c2)nc1	182 nM
